In PubChem BioAssay AID489022 (Sanford-Burnham Center for Chemical Genomics, 2010) one finds IC50 data, which are given here for 21 compounds.

Molecules are shown by their SMILES. Activity calls are given as the source filed them. The rule behind the calls is not given here.

The experiment deals with HEK-293T NF-kB luciferase reporter, luminescence counterscreen. Put plainly: NF-kB reporter suppression in HEK-293T cells – luminescence, B-cell screen hits, counter-screen for BCR NF-kB inhibitor project, dose response (AID 489022).
For the compound `Cc1c(NC(=O)/C=C/c2cn(-c3ccccc3)nc2-c2ccccc2)c(=O)n(-c2ccccc2)n1C`, the IC50 is > 80 µM (inactive).

Consider `Cc1cc(OC(=O)c2ccccc2Cl)cc(=O)n1C`, for which the IC50 was > 80 µM (inactive).

On to `CC(C)(C)c1ccc(-c2noc(CCC(=O)N3CCOCC3)n2)cc1`, for which the IC50 was 35 µM (inactive).

On to `Cc1cc(C)cc(NC(=O)Nc2ccc(NC(=O)c3ccccc3O)cc2)c1`, for which the IC50 is > 80 µM (inactive).

With `COc1ccc(-c2ccc(OC)c([C@H]3[C@H]4C=CC[C@@H](C)[C@@H]4C(=O)N3Cc3ccccc3)c2)cc1`, the IC50 was 55.5 µM (inactive).

For the compound `CCn1c(=O)cc(OCC(=O)NCc2ccc(C)o2)c2ccccc21`, the IC50 is > 80 µM (inactive).

As for `COc1ccc(C(C(=O)NC2CCCCC2)N(C(=O)CCl)c2ccc(OC)cc2)cc1` (stereo unspecified), the IC50 is 15.2 µM.

For the compound `CCN1C(=O)c2cccc3c(S(=O)(=O)N4CCC(C)CC4)ccc1c23`, the IC50 was 17.5 µM.

For `C[C@H]1CCC/C=C/C2C[C@H](O)CC2[C@H](O)/C=C/C(=O)O1` (stereo partly specified), the IC50 was 0.29 µM.

For the compound `CCn1c(=O)cc(SCC(=O)N2CCN(C)CC2)c2ccccc21`, the IC50 is > 80 µM (inactive).

For the compound `COc1ccc(-c2ccc(F)cc2)cc1[C@H]1[C@H]2C=CC[C@@H](C)[C@@H]2C(=O)N1Cc1ccccc1`, the IC50 was 13.1 µM.

For `COc1cc(NC(=O)c2cc3c(C)nc4ccccc4c3o2)cc(OC)c1OC`, the IC50 was 18.4 µM.

On to `CC(C)(C)c1ccc(-c2noc(CCC(=O)NCC3CCCO3)n2)cc1` (stereo unspecified), for which the IC50 was 1.22 µM.

As for `CCn1c(=O)cc(SCC(=O)N2CCOCC2)c2ccccc21`, the IC50 is > 80 µM (inactive).

With `CC1(C)CC2CC(C)(CN2S(=O)(=O)c2ccc(C(=O)Nc3ccc(S(=O)(=O)N4CCOCC4)cc3)cc2)C1` (stereo unspecified), the half-inhibitory concentration (IC50) was 0.68 µM.

Take `Cc1ccc(O)c(NC(=O)COc2cc(C)ccc2C)c1`: the IC50 is > 80 µM (inactive).

For `COc1ccc(/C=C\C(=O)O[C@@H]2C(O)C(O[C@@H]3OC(C)[C@H](O[C@@H]4OCC(O[C@H]5O[C@H](CO)[C@@H](O)C(O)C5O)C(O)C4O)C(O)C3O)[C@H](OC(=O)[C@]34CCC(C)(C)C[C@@H]3C3=CCC5[C@@]6(C)CC(O)C(O[C@@H]7OC(CO)C(O)[C@H](O)[C@H]7O)[C@@](C)(C(=O)O)C6CC[C@@]5(C)[C@]3(CO)CC4)O[C@H]2C)cc1` (stereo partly specified), the IC50 was 45.7 µM (inactive).

Take `O=C(O)COc1ccc(-c2nccc(-c3ccccn3)n2)cc1`: the IC50 is 13.3 µM.

On to `Cn1nc(-c2ccc(Cl)cc2)c2cc(C(=O)N3CCCC3)sc21`, for which the IC50 was 3.75 µM.

Turning to `CCCCCOc1ccc(NC(=O)C(=O)NCCCn2ccnc2)cc1`, the IC50 is 42.8 µM (inactive).

For `CC1(c2nnc(-c3cccc(Cl)c3)o2)CC(c2cccc(Cl)c2)=NO1` (stereo unspecified), the IC50 was 29.9 µM (inactive).

The term IC50 denotes the concentration that inhibits the measured activity by half.
